Ki data for five compounds are collected here from BindingDB's records for doi:10.1016/j.bmcl.2005.12.040 (Celera, 2006).

Structures are written as SMILES.

The assay has as its target T1, Coagulation factor VII (Homo sapiens, UniProt P08709).
T1 sequence (P08709 whole entry): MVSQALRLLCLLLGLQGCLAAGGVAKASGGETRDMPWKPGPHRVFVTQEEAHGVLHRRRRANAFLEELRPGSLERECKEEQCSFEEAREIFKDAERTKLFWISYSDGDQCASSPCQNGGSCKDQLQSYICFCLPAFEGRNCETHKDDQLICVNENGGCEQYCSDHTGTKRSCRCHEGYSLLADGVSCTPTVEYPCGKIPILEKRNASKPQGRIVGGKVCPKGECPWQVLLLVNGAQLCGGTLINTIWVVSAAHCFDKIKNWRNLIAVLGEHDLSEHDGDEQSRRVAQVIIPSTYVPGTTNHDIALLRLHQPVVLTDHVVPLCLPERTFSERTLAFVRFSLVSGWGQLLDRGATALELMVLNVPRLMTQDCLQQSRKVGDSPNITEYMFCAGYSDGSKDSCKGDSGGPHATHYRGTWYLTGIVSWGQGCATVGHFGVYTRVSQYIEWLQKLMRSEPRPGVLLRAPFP
The experiment in a line: Enzyme Inhibition Assay. As to the method: The enzyme reactions were initiated by the addition of substrate, and the color developed from the release of p-nitroanilide from each chromogenic substrate was monitored at 405 nm using a Thermomax kinetic plate reader (Molecular Devices). […] The apparent Ki values were then calculated according to the Cheng-Prusoff equation: Ki = IC50/1 + [S]/Km.
Turning to `CSc1ccccc1-c1cc(C(CC(=O)O)C(=O)O)cc(-c2nc3ccc(C(=N)N)cc3[nH]2)c1O` (stereo not given) [2-[3-(5-carbamimidoyl-1H-1,3-benzodiazol-2-yl)-4-hydroxy-5-[2-(methylsulfanyl)phenyl]phenyl]butanedioic acid], the affinity, expressed as Ki, was 0.064 µM.
Next, `CC(=O)N(c1cccc(C)c1)c1cc(C(CC(=O)O)C(=O)O)cc(-c2nc3ccc(C(=N)N)cc3[nH]2)c1O` (stereo not given) [2-[3-(5-carbamimidoyl-1H-1,3-benzodiazol-2-yl)-4-hydroxy-5-[N-(3-methylphenyl)acetamido]phenyl]butanedioic acid]: 0.054 µM; `N=C(N)c1ccc2nc(-c3cc(C(CC(=O)O)C(=O)O)cc(-c4cccc(C5CCOC(=O)O5)c4)c3O)[nH]c2c1` (stereo not given) [2-[3-(5-carbamimidoyl-1H-1,3-benzodiazol-2-yl)-4-hydroxy-5-[3-(2-oxo-1,3-dioxan-4-yl)phenyl]phenyl]butanedioic acid]: 0.28 µM.
For the compound `N=C(N)c1ccc2nc(-c3cc(C(CC(=O)O)C(=O)O)cc(-c4ccc(CO)s4)c3O)[nH]c2c1` (stereo not given) [2-[3-(5-carbamimidoyl-1H-1,3-benzodiazol-2-yl)-4-hydroxy-5-[5-(hydroxymethyl)thiophen-2-yl]phenyl]butanedioic acid], the Ki was found to be 0.13 µM.
Compound `N=C(N)c1ccc2nc(-c3cc(C(CC(=O)O)C(=O)O)cc(-c4ccc(Cl)s4)c3O)[nH]c2c1` (stereo not given) [2-[3-(5-carbamimidoyl-1H-1,3-benzodiazol-2-yl)-5-(5-chlorothiophen-2-yl)-4-hydroxyphenyl]butanedioic acid] displayed a Ki of 0.11 µM.
